Converted amounts (≈) assume the structure as drawn.
Experiments:
X4 HIV-1 NL4.3 [1] = assay: HIV-1 infection assay MT-4/NL4.3 (cytopathic effect, MTS); type: cell-based; details: Human immunodeficiency virus 1; MT-4/NL4.3 exp. 1
X4 HIV-1 NL4.3 [2] = assay: HIV-1 infection assay PBMC/NL4.3 (p24 Ag ELISA); type: cell-based; details: Human immunodeficiency virus 1, PBMC
Protocol: (§1) The CXCR4-using (X4) HIV-1 molecular clone NL4.3 was obtained from the National Institutes of Health NIAID AIDS Reagent program (Bethesda, Md.), the CCR5-using (R5) HIV-1 strain BaL was obtained from the Medical Research Council AIDS reagent project (Herts, UK). […] The MT-4 cells were seeded out in 96-well plate and the U87 cells in 24-well plates. The test compounds were added at different concentrations together with HIV-1 and the plates were maintained at 37° C. in 10% CO2. Cytopathic effect induced by the virus was monitored by daily microscopic evaluation of the virus-infected cell cultures. […] The absorbance was then measured spectrophotometrically at 490 nm with a 96-well plate reader (Molecular Devices, Sunnyvale, Calif.) and compared with four cell control replicates (cells without virus and drugs) and four virus control wells (virus-infected cells without drugs).
(§2) Peripheral blood mononuclear cells (PBMCs) from healthy donors were isolated by density centrifugation (Lymphoprep; Nycomed Pharma, AS Diagnostics, Oslo, Norway) and stimulated with phytohemagglutin (PHA) (Sigma Chemical Co., Bornem Belgium) for 3 days. The activated cells (PHA-stimulated blasts) were washed with PBS and viral infections were performed as described previously (Schols D, Struyf S, Van Damme J, Este J A, Henson G, De Clercq E. Inhibition of T-tropic HIV strains by selective antagonization of the chemokine receptor CXCR4. J Exp Med 1997; 186:1383-1388). At 8-10 days after the start of the infection, viral p24 Ag was detected in the culture supernatant by an enzyme-linked immunosorbent assay (Perkin Elmer, Brussels, Belgium).
(§3) The anti-HIV-1 potencies of NANOBODIES on the X4 HIV-1 clone NL4.3 or primary virus strains UG270 (X4, Clade D), CI#17 (X4, clade B), the R5 HIV-1 strain BaL or the R5/X4 HIV-1 HE strain in MT-4, U87.CD4.CXCR4, U87.CD4.CCR5 and/or phytohemagglutin-stimulated PBMCs from different donors were determined by measuring the cytopathic effect of HIV-1 (in MT-4 and U87 cell lines) microscopically and by tetrazolium-based colorimetric evaluation or by quantification of the viral p24 antigen production in the culture supernatant (PBMCs) as described in detail. Primary virus strains were grown 1 or 2 times in PBMC only.
Peripheral blood mononuclear cells (PBMCs) from healthy donors were isolated by density centrifugation (Lymphoprep; Nycomed Pharma, AS Diagnostics, Oslo, Norway) and stimulated with phytohemagglutin for 3 days. […] At 8-10 days after the start of the infection, viral p24 Ag was detected in the culture supernatant by an enzyme-linked immunosorbent assay (Perkin Elmer, Brussels, Belgium).

[3] = test system: HIV-1 UG270 (X4, Clade D); assay: HIV-1 infection assay PBMC/primary isolate UG270 (p24 Ag ELISA); type: cell-based; details: Human immunodeficiency virus 1, PBMC
Protocol: as §3
as §2, with “phytohemagglutin” for “phytohemagglutin (PHA) (Sigma Chemical Co., Bornem Belgium)”, “cells” for “cells (PHA-stimulated blasts)”, “et al. (1997)” for “Struyf S, Van Damme J, Este J A, Henson G, De Clercq E.”, “Med” for “Med 1997;”

[4] = test system: HIV-1 CI#17 (X4, clade B); assay: HIV-1 infection assay PBMC/primary isolate CI#17 (p24 Ag ELISA); type: cell-based; details: Human immunodeficiency virus 1, PBMC
Protocol: as §3
as §2, with “phytohemagglutin” for “phytohemagglutin (PHA) (Sigma Chemical Co., Bornem Belgium)”, “cells” for “cells (PHA-stimulated blasts)”, “et al. (1997)” for “Struyf S, Van Damme J, Este J A, Henson G, De Clercq E.”, “Med” for “Med 1997;”

CXCR4 [5] = target: T1, CXCR4 (Homo sapiens, UniProt P61073); details: 3 μM; control experiment; membranes from HEK293T cells transiently expressing CXCR4
CXCR4 [6] = target: T1, CXCR4; assay: Competition binding with [125I]-CXCL12 on membranes from HEK293T cells transiently expressing CXCR4; parameters: expressed in transfected cells; host or cells: HEK293T, transient (pcDNA3.1-CXCR4); details: maximal displacement; a: no significant displacement at 0.5 μM; b/c(B-6): maximum not reached, displacement at 0.5 μM
Protocol: (§4) Membranes from HEK293T cells transiently expressing CXCR3 or CXCR4 were prepared 48 h after transfection as follows. Cells were washed and scraped from the cell culture dishes with ice-cold PBS containing 1 mm EDTA. The scraped cells were pelleted at 1500×g for 10 min at 4° C. The pellet was washed and then resuspended in ice-cold membrane buffer (15 mM Tris, pH 7.5, 1 mM EGTA, 0.3 mM EDTA, and 2 mM MgCl2). The cell suspension was homogenized by 10 strokes at 1200 rpm using a Teflon-glass homogenizer and rotor and further subjected to three freeze-thaw cycles using liquid nitrogen. Membranes were separated by centrifugation at 40,000 g for 25 min at 4° C. The membrane pellet was washed and resuspended in ice-cold Tris-sucrose buffer (20 mM Tris, pH 7.4, and 250 mM sucrose) and frozen in liquid nitrogen. The total protein was determined using a Bradford assay (Bio-Rad).
Membranes were then harvested over polyethylenimine (0.5%)-treated Whatman GF/C filter plates and washed three times with ice cold binding buffer containing 500 mM NaCl. Plates were counted by liquid scintillation. […]

CXCR4 [7] = target: T1, CXCR4; assay: Competition binding with [125I]-238D2 on membranes from HEK293T cells transiently expressing CXCR4; parameters: expressed in transfected cells; host or cells: HEK293T, transient (pcDNA3.1-CXCR4)
Protocol: as §4
(§5) Membranes were then harvested over polyethylenimine (0.5%)-treated Whatman GF/C filter plates and washed three times with ice cold binding buffer containing 500 mM NaCl. Plates were counted by liquid scintillation.

CXCR4 [8] = target: T1, CXCR4; assay: Competition binding with [125I]-238D4 on membranes from HEK293T cells transiently expressing CXCR4; parameters: expressed in transfected cells; host or cells: HEK293T, transient (pcDNA3.1-CXCR4)
Protocol: as §4, §5

R5 HIV-1 BaL [9] = assay: HIV-1 infection assay PBMC/BaL (p24 Ag ELISA); type: cell-based
Protocol: as §1, §2, §3
as §2, with “phytohemagglutin” for “phytohemagglutin (PHA) (Sigma Chemical Co., Bornem Belgium)”, “cells” for “cells (PHA-stimulated blasts)”, “et al. (1997)” for “Struyf S, Van Damme J, Este J A, Henson G, De Clercq E.”, “Med” for “Med 1997;”

R5 HIV-1 BaL [10] = assay: HIV-1 infection assay U87.CD4.CCR5/BaL (MTS); type: cell-based; details: read-out: Anti-HIV-1 activity (IC50)
CXCR4 [11] = target: T1, CXCR4; assay: Binding of 125I-labeled Nanobodies to membranes from HEK293T cells expressing CXCR4 compared to CXCR3; parameters: expressed in transfected cells; host or cells: HEK293T, transient (pcDNA3.1-CXCR4)
Protocol: as §4
Periplasmas (1:10) or ligands were pre-incubated with membranes in binding buffer (50 mM HEPES (pH 7.4), 1 mM CaCl2, 5 mM MgCl2, 100 mM NaCl, 0.5% bovine serum albumin) supplemented with 0.5% BSA for 1 h at 22° C. before the addition of [^125I]-CXCL12 (40 pM) or [^125I]-238D2 (3 nM) or [^125I]-238D4 (3 nM) for additional 2 h at 22° C. […] Plates were counted by liquid scintillation.

[12] = 238C5 only at high concentrations (≧100 nM)
[13] = maximal displacement, a: no significant displacement at 0.5 μM, b: displacement at 0.5 μM

T1 sequence (P61073 whole entry): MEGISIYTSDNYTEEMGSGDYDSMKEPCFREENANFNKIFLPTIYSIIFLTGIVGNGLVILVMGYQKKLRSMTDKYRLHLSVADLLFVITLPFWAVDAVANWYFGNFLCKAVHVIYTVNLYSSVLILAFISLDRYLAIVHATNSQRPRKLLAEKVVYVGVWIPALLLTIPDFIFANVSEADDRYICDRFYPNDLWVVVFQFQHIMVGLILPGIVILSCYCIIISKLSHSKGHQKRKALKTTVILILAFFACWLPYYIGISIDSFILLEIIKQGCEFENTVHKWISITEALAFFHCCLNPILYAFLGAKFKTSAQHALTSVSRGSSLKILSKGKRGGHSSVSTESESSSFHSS

c1cc(CN2CCCNCCNCCCNCC2)ccc1CN1CCCNCCNCCCNCC1 [AMD3100] was tested, and the IC50 (X4 HIV-1 NL4.3 [1]) was 0.0064 µg/mL (≈ 0.0127 µM), the IC90 (X4 HIV-1 NL4.3 [1]) was over 0.04 µg/mL and the IC50 (X4 HIV-1 NL4.3 [2]; PBMC + NL4.3 donor 1) was 0.0011 µg/mL. For the same molecule, the IC90 (X4 HIV-1 NL4.3 [2]; PBMC + NL4.3 donor 1) was 0.0099 µg/mL, the IC50 (X4 HIV-1 NL4.3 [2]; PBMC + NL4.3 donor 2) was over 0.04 µg/mL and the IC90 (X4 HIV-1 NL4.3 [2]; PBMC + NL4.3 donor 2) was over 0.04 µg/mL. For the same molecule, the IC50 ([3]; PBMC + UG270 donor 1) was 0.0036 µg/mL, the IC90 ([3]; PBMC + UG270 donor 1) was 0.0154 µg/mL and the IC50 ([3]; PBMC + UG270 donor 2) was 0.0179 µg/mL. For the same molecule, the IC90 ([3]; PBMC + UG270 donor 2) was 0.0341 µg/mL, the IC50 ([4]; PBMC + CI#17 donor 1) was 0.0121 µg/mL and the IC90 ([4]; PBMC + CI#17 donor 1) was over 0.04 µg/mL. The IC50 ([4]; PBMC + CI#17 donor 2) was 0.0149 µg/mL, the IC90 ([4]; PBMC + CI#17 donor 2) was 0.0379 µg/mL and the “displacement of [125I]-CXCL12” value (CXCR4 [5]) was “full”. For the same molecule, the “Displacem. (%) of [125I]-CXCL12” value (CXCR4 [6]) was 94 ± 2%, the “displacement of [125I]-238D2 (in words)” value (CXCR4 [7]; [12]) was “displaced” and the “Displacem. (%) of [125I]-238D2” value (CXCR4 [7]; [13]) was 102 ± 1%. The “displacement of [125I]-238D4 (in words)” value (CXCR4 [8]; [12]) was “displaced” and the “Displacem. (%) of [125I]-238D4” value (CXCR4 [8]; [13]) was 99 ± 4%.

With maraviroc the “IC50” value (R5 HIV-1 BaL [9]; PBMC + BaL donor 1) was 0.0015 µg/mL, the “IC90” value (R5 HIV-1 BaL [9]; PBMC + BaL donor 1) was 0.0273 µg/mL and the “IC50” value (R5 HIV-1 BaL [9]; PBMC + BaL donor 2) was 0.0008 µg/mL. The “IC90” value (R5 HIV-1 BaL [9]; PBMC + BaL donor 2) was 0.0131 µg/mL, the IC50 (R5 HIV-1 BaL [9]; read-out: Anti-HIV-1 activity (IC50), PBMC/BaL) was 3.13 nM and the IC50 (R5 HIV-1 BaL [10]) was 0.72 nM.

B1: [^125I]-238D2: 125I-labeled NANOBODY 238D2 for competition binding studies (protein)
VHH: EVQLVESGGGLVQTGGSLRLSCAASGFTFSSYAMSWVRQAPGKGLEWVSGIKSSGDSTRYAGSVKGRFTISRDNAKNMLYLQMYSLKPEDTAVYYCAKSRVSRTGLYTYDNRGQGTQVTVSS
In the case of B1, the “binding to CXCR4 membranes compared to CXCR3 membranes” value (CXCR4 [11]) is reported as “selectively bound”.

Reference: US9005963B2, “Amino acid sequences directed against cellular receptors for viruses and bacteria” (Ablynx N.V., priority 2008, dated 2015)
